In patent US20070232601A1, “Vla-4 Inhibitor” (priority 2004, published 2007):
Marks after values point to notes of the source that are not given here.

What was measured:
[1] = Intracorporeal kinetics and oral absorbing property test (dog, oral cassette); assay type: in vivo; settings: orally administered, 0.5 mg/kg cassette; for AUC (total area under the plasma concentration versus time curve): LC/MS/MS
Procedure: Intracorporeal Kinetics and Oral Absorbing Property Test: A pharmacokinetic parameter when a test substance was orally administered to a dog by 0.5 mg/kg cassette was as follows.

[2] = molecular target: T1, hα4 and β1 integrins (VLA-4) (Homo sapiens, UniProt P05556+P13612); experiment: In vitro evaluation: inhibition of binding of CHO cells expressing hα4 and β1 integrins to Eu3+-hVCAM-1 D1D7-IgG; settings: ligand Eu3+-hVCAM-1 D1D7-IgG 2 nM, Ki calculated from IC50
T1 construct: expressed in transfected cells; host or cells: CHO cells
In short: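 CHO cells stably expressing hα4β1 were cultured 2 days, then incubated 1 h at room temperature with Eu3+-hVCAM-1 D1D7-IgG (added as 2 nM solution) and compound in HEPES pH 7.5 with Ca2+, Mg2+ and 4 mM Mn2+, ± 6% human serum albumin. Bound europium was read by time-resolved fluorescence; IC50 was converted to Ki using Scatchard-derived Kd.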

[3] = Dispersibility test in Japanese Pharmacopoeia First and Second Solution; assay type: physicochemical; settings: for Dispersibility in Japanese Pharmacopoeia First Solution: JP1, pH 1.2; for Dispersibility in Japanese Pharmacopoeia Second Solution: JP2, pH 6.8
Procedure: Dispersibility of a test substance in Japanese Pharmacopoeia First Solution (JP1, pH 1.2) and Japanese Pharmacopoeia Second Solution (JP2, pH 6.8) was evaluated.

eosinophils in BALF = experiment: Ascaris active sensitization-induced mouse eosinophil infiltration test; assay type: in vivo; settings: test substance orally administered two times per day, BALF 48 hours after inducement; for Inhibition rate: vs Ascaris-induced group
Procedure: Ascaris (Ascaris suum Antigen in pigs) active sensitization-induced mouse eosinophil infiltration test:
It has been reported that cell infiltration of eosinophil is induced by inducing Ascaris active sensitization {Int. Arch. Immunol., 108, 11-18, (1995)}. In this evaluation method, a test compound was evaluated. A test substance was orally administered two times per day, the total count of cells and the count of eosinophils in BALF 48 hours after inducement were calculated, and the effect was determined by comparing with a non-test substance administered group.
Results of mouse eosinophil infiltration test ^1 anti-VLA-4 antibody, two times/1 day s.c. administration; **p<0.01: vs D, cont by student's t-test

T1 sequence (P13612 34-1032): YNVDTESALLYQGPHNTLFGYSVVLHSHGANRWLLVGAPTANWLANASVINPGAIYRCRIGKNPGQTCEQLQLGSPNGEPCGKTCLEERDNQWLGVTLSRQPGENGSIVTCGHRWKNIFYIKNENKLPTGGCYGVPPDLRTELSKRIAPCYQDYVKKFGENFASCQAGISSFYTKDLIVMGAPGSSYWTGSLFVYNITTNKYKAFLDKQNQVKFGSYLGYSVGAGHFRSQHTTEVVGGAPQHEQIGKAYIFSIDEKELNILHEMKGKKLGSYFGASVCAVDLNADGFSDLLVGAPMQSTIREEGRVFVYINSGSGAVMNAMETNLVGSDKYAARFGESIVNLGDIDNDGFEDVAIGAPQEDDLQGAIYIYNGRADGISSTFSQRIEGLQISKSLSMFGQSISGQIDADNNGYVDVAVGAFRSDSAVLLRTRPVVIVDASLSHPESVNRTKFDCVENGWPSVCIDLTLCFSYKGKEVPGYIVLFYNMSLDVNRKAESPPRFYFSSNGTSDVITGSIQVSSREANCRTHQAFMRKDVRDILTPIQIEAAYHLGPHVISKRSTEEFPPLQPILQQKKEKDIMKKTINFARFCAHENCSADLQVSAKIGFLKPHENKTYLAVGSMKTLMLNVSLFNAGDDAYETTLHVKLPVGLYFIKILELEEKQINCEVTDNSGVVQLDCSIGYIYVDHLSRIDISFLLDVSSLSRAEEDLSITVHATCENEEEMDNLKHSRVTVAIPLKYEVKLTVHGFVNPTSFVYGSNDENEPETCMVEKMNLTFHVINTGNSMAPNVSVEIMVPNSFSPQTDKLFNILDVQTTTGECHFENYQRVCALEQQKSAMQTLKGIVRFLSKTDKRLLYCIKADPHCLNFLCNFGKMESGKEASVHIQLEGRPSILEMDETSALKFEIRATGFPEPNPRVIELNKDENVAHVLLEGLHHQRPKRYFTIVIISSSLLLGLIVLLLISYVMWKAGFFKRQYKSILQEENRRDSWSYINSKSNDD
T1 sequence (P05556 21-798): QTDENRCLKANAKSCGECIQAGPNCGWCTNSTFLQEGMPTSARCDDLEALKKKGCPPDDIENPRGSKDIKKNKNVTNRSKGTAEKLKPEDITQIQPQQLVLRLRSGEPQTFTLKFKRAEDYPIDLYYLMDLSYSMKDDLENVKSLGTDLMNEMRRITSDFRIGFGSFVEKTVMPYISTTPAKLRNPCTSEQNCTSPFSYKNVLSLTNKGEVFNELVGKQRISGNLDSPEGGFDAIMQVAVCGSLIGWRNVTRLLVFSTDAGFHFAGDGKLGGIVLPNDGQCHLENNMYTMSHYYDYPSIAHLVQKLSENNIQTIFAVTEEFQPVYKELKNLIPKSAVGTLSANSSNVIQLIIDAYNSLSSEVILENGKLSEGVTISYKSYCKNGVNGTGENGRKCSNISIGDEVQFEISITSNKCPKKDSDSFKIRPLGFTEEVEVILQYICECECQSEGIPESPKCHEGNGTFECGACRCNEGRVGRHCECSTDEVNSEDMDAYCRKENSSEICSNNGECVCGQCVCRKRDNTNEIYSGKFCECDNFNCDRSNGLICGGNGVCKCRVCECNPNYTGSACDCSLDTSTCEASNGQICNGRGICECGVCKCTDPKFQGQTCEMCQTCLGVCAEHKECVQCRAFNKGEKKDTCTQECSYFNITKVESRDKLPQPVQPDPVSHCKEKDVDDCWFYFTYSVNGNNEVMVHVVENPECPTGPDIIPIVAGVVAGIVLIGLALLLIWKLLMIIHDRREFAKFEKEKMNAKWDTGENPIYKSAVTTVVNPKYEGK

Cltot (apparent plasma clearance) [1] [mL/min/kg]	AUC (total area under the plasma concentration versus time curve) [1] [ng·h/mL]	Ki [2] [nM]	Structure (SMILES)	Dispersibility in Japanese Pharmacopoeia First Solution [3] [µg/mL]	Dispersibility in Japanese Pharmacopoeia Second Solution [3] [µg/mL]	Average total eosinophil count (eosinophils in BALF)	Inhibition rate (eosinophils in BALF)
0.59	14860	6.7	COC[C@@H]1CC[C@@H](c2ncc(CCC(=O)O)s2)N1C(=O)Cc1ccc2nc(Nc3cc(F)ccc3C)oc2c1 [Example 58]	–	–	–	–
0.31	27620	4.4	COC[C@@H]1CC[C@@H](c2ncc(CCC(=O)O)s2)N1C(=O)Cc1ccc2nc(Nc3cc(F)ccc3C)oc2c1F [Example 57, 3-[2-[1-[7-Fluoro-2-(5-fluoro-2-methylphenyl)-amino-6-benzoxazolylacetyl]-(5S)-methoxymethyl-(2S)-pyrrolidinyl]-5-thiazolyl]propionic acid]	–	–	–	–
0.42	19770	8.6	Cn1cc(C(=O)Nc2cc(Cl)c(CC(=O)N3[C@H](c4ncc(CCC(=O)O)s4)C[C@@H]4CCCC[C@@H]43)cc2Cl)c2ccccc21 [Example 60, 3-[2-[1-[2,5-Dichloro-4-(1-methyl-3-indolylcarbonyl)aminophenylacetyl]-(2S)-octahydroindolyl]-5-thiazolyl]propionic acid]	–	–	–	–
–	–	1.6	Cn1cc(C(=O)Nc2cc(Cl)c(CC(=O)N3C[C@@H](N4CCCCC4)C[C@H]3c3ncc(CCC(=O)O)s3)cc2Cl)c2ccccc21 [Example 46, 3-[2-[1-[2,5-Dichloro-4-(1-methyl-3-indolylcarbonylamino)phenylacetyl]-(4S=)=1-piperidinyl-(2S)-pyrrolidinyl]-5-thiazolyl]propionic acid]	>2000	570	1.44 ×10^5	53** %
–	–	0.84	CO[C@@H]1C[C@@H](c2ncc(CCC(=O)O)s2)N(C(=O)Cc2cc(Cl)c(NC(=O)c3csc4ccccc34)cc2F)C1 [Example 25, 3-[2-[1-[4-[(3-Benzo[b]thienylcarbonyl)amino]-5-chloro-2-fluorophenylacetyl]-(4R)-methoxy-(2S)-pyrrolidinyl]-5-thiazolyl]propionic acid]	7	330	–	–
0.57	14935	1.7	CC(C)O[C@H]1C[C@@H](c2ncc(CCC(=O)O)s2)N(C(=O)Cc2cc(Cl)c(NC(=O)c3csc4ccccc34)cc2F)C1 [Example 36, 3-[2-[1-[4-[(3-Benzo[b]thienylycarbonyl)amino]-5-chloro-2-fluorophenylacetyl]-4S-isopropoxy-(2S)-pyrrolidinyl]-5-thiazolyl]propionic acid]	–	–	–	–

The remaining lines, values behind:

Structure (SMILES)	Cltot (apparent plasma clearance) [1] [mL/min/kg]	AUC (total area under the plasma concentration versus time curve) [1] [ng·h/mL]	Ki [2] [nM]	Dispersibility in Japanese Pharmacopoeia First Solution [3] [µg/mL]	Dispersibility in Japanese Pharmacopoeia Second Solution [3] [µg/mL]	Average total eosinophil count (eosinophils in BALF)	Inhibition rate (eosinophils in BALF)
CO[C@H]1C[C@@H](c2ncc(CCC(=O)O)s2)N(C(=O)Cc2cc(Cl)c(NC(=O)c3csc4ccccc34)cc2F)C1 [Example 4, 3-[2-[1-[4-[(3-Benzo[b]thienylcarbonyl)amino]-5-chloro-2-fluorophenylacetyl]-(4S)-methoxy-(2S)-pyrrolidinyl]-5-thiazolyl]propionic acid]	0.82	10240	0.72	–	–	–	–
CCOC[C@@H]1CC[C@@H](c2ncc(CCC(=O)O)s2)N1C(=O)Cc1ccc2nc(Nc3cc(F)ccc3C)oc2c1F [Example 51, 3-[2-[(5S)-ethoxymethyl-1-[7-fluoro-2-(5-fluoro-2-methylphenyl)amino-6-benzoxazolylacetyl]-(2S)-pyrrolidinyl]-5-thiazolyl]propionic acid]	0.26	32310	4.6	88	>800	–	–
CO[C@H]1C[C@@H](c2ncc(CCC(=O)O)s2)N(C(=O)Cc2cc(Cl)c(NC(=O)c3cn(C)c4ccccc34)cc2F)C1 [Example 2, 3-[2-[1-[5-Chloro-2-fluoro-4-(1-methyl-3-indolylcarbonyl)aminophenylacetyl]-(4S)-methoxy-(2S)-pyrrolidinyl]-5-thiazolyl]propionic acid]	0.81	10690	0.85	97	>2000	–	–
CO[C@H]1C[C@@H](c2ncc(CCC(=O)O)s2)N(C(=O)Cc2cc(Cl)c(NC(=O)c3cn(C)c4ccccc34)cc2Cl)C1 [Example 1, 3-[2-[1-[2,5-Dichloro-4-(1-methyl-3-indolylcarbonylamino)phenylacetyl]-(4S)-methoxy-(2S)-pyrrolidinyl]-5-thiazolyl]propionic acid]	1.23	7040	1.3	33	>2000	1.52 ×10^5	57** %
O=C(O)CCc1cnc([C@@H]2C[C@H](N3CCC(F)(F)CC3)CN2C(=O)Cc2cc(Cl)c(NC(=O)c3csc4ccccc34)cc2Cl)s1 [Example 76]	–	–	0.79	110	83	–	–
CO[C@H]1C[C@@H](c2ncc(CCC(=O)O)s2)N(C(=O)Cc2cc(Cl)c(Nc3nc4ccccc4o3)cc2Cl)C1 [Example 109, 3-[2-[1-[4-(2-Benzoxazolyl)amino-2,5-dichlorophenyl)acetyl-(4S)-methoxy-(2S)-pyrrolidinyl]-5-thiazolyl]propionic acid]	–	–	6.3	480	750	–	–
O=C(O)CCc1cnc([C@@H]2C[C@H](N3CCC(F)(F)CC3)CN2C(=O)Cc2cc(Cl)c(NC(=O)c3coc4ccccc34)cc2Cl)s1 [Example 78, 3-[2-[1-[4-(3-Benzo[b]furanylcarbonylamino)-2,5-dichlorophenylacetyl]-(4S)-[1-(4,4-difluoro)piperidinyl]-(2S)-pyrrolidinyl]-5-thiazolyl]propionic acid]	–	–	1.2	260	230	–	–
CCOC1CN([C@H]2C[C@@H](c3ncc(CCC(=O)O)s3)N(C(=O)Cc3cc(Cl)c(NC(=O)c4csc5ccccc45)cc3F)C2)C1 [Example 71, 3-[2-[1-[4-(3-Benzo[b]thiophenylcarbonylamino)-5-chloro-2-fluorophenylacetyl]-(4S)-1-(3-ethoxy)azetidinyl-(2S)-pyrrolidinyl]-5-thiazolyl]propionic acid]	–	–	0.5	940	940	–	–
